# According to patent US20080194556A1, “Quinazolines and Their Use as Aurora Kinase Inhibitors” (ASTRAZENECA AB, priority 2005, published 2008):
# How the values were obtained:
# [1] = biological target: T1, aurora B-INCENP enzyme (Homo sapiens, UniProt Q96GD4); test: In vitro aurora B kinase inhibition test; format: biochemical; conditions: 33P incorporation into peptide substrate, 60 minutes at room temperature, read-out: IC50 (50% inhibition of enzyme activity), aurora B kinase
# T1 construct: 6-histidine; purchased Upstate
# Text: (b) In Vitro Aurora B Kinase Inhibition Test
# This assay determines the ability of a test compound to inhibit serine-threonine kinase activity. DNA encoding aurora B may be obtained by total gene synthesis or by cloning. This DNA may then be expressed in a suitable expression system to obtain polypeptide with serine-threonine kinase activity. In the case of aurora B, the coding sequence was isolated from cDNA by polymerase chain reaction (PCR) and cloned into the pFastBac system in a manner similar to that described above for aurora A (i.e. to direct expression of a 6-histidine tagged aurora B protein).
# For the large scale expression of aurora B kinase activity, Sf21 insect cells were grown at 28° C. in TC100 medium supplemented with 10% foetal calf serum (Viralex) and 0.2% F68 Pluronic (Sigma) on a Wheaton roller rig at 3 r.p.m. When the cell density reached 1.2×10^6 cells ml^−1 they were infected with plaque-pure aurora B recombinant virus at a multiplicity of infection of 1 and harvested 48 hours later. All subsequent purification steps were performed at 4° C. Frozen insect cell pellets containing a total of 2.0×10^8 cells were thawed and diluted with lysis buffer (50 mM HEPES (N-[2-hydroxyethyl]piperazine-N′-[2-ethanesulphonic acid]) pH7.5 at 4° C., 1 mM Na3VO4, 1 mM PMSF (phenylmethylsulphonyl fluoride), 1 mM dithiothreitol, 1 μg/ml aprotinin, 1 μg/ml pepstatin, 1 μg/ml leupeptin), using 1.0 ml per 2×10^7 cells. Lysis was achieved using a sonication homogeniser, following which the lysate was centrifuged at 41,000 g for 35 minutes. Aspirated supernatant was pumped onto a 5 mm diameter chromatography column containing 1.0 ml CM sepharose Fast Flow (Amersham Pharmacia Biotech) which had been equilibrated in lysis buffer. A baseline level of UV absorbance for the eluent was reached after washing the column with 12 ml of lysis buffer followed by 7 ml of wash buffer (50 mM HEPES pH7.4 at 4° C., 1 mM dithiothreitol). […]
# [2] = tested on: drug-resistant MCF7-ADR human breast tumour cells; test: In vitro drug-resistant cell phenotype and substrate phosphorylation assay (phosphohistone H3 levels); format: cell-based; conditions: NCI/ADR-RES, 24 hours of treatment, read-out: IC50 (inhibition of phosphohistone H3 levels)
# Procedure: (d) In Vitro Drug-Resistant Cell Phenotype and Substrate Phosphorylation Assay.
# This assay is used to determine the cellular effects of compounds on drug-resistant MCF7-ADR human breast tumour cells in vitro.
# Compounds typically cause inhibition of levels of phosphohistoneH3 and an increase in the nuclear area of treated cells.
# 0.8×10^4 MCF7-ADR cells per well were plated in 100 μl DMEM media (containing 10% FCS (foetal calf serum) and 1% glutamine) in costar 96 well plates and left overnight at 37° C. and 5% CO2 to adhere.
# All other procedures are identical to those for the above assay using SW620 cells.
# The compounds of the invention generally have EC50 values for inhibition of phosphohistone H3 levels of 0.5 nM to 0.1 μM.
# [3] = tested on: SW620 human colon tumour cells; test: In vitro cell phenotype and substrate phosphorylation assay (phosphohistone H3 levels); format: cell-based; conditions: SW-620, 24 hours of treatment, read-out: IC50 (inhibition of phosphohistone H3 levels)
# Procedure: (c) In Vitro Cell Phenotype and Substrate Phosphorylation Assay
# This assay is used to determine the cellular effects of compounds on SW620 human colon tumour cells in vitro. Compounds typically cause inhibition of levels of phosphohistone H3 and an increase in the nuclear area of the cells.
# 10^4 SW620 cells per well were plated in 100 μl DMEM media (containing 10% FCS and 1% glutamine) (DMEM is Dulbecco's Modified Eagle's Medium (Sigma D6546)) in costar 96 well plates and left overnight at 37° C. and 5% CO2 to adhere. The cells were then dosed with compound diluted in media (50 μl is added to each well to give 0.00015μ-1 μM concentrations of compound) and after 24 hours of treatment with compound, the cells were fixed.
# The cells were first examined using a light microscope and any cellular changes in morphology were noted. 100 μl of 3.7% formaldehyde was then added to each well, and the plate was left for at least 30 minutes at room temperature. Decanting and tapping the plate on a paper towel removed the fixative and plates were then washed once in PBS (Dulbecco's Phosphate Buffered Saline (Sigma D8537)) using an automated plate washer. 100 μl PBS and 0.5% triton X-100 was added and the plates were put on a shaker for 5 minutes. The plates were washed in 100 μl PBS and solution tipped off. 50 μl of primary antibody, 1:500 rabbit anti-phosphohistone H3 in PBS 1% BSA (bovine serum albumin) and 0.5% tween, was added. Anti-phosphohistone H3 rabbit polyclonal 06-750 was purchased from Upstate Biotechnology. The plates were left 1 hour at room temperature on a shaker.
# The next day, the antibody was tipped off and the plates were washed twice with PBS. In an unlit area, 50 μl of secondary antibody, 1:10,000 Hoechst and 1:200 Alexa Fluor 488 goat anti rabbit IgGA (cat no. 11008 molecular probes) in PBS 1% BSA, 0.5% tween was added. The plates were wrapped in tin foil and shaken for 1 hour at room temperature. The antibody was tipped off and plates were washed twice with PBS. […] 100 μl PBS was added to each well and the plates were sealed ready to analyse. […]
# T1 sequence (Q96GD4 whole entry): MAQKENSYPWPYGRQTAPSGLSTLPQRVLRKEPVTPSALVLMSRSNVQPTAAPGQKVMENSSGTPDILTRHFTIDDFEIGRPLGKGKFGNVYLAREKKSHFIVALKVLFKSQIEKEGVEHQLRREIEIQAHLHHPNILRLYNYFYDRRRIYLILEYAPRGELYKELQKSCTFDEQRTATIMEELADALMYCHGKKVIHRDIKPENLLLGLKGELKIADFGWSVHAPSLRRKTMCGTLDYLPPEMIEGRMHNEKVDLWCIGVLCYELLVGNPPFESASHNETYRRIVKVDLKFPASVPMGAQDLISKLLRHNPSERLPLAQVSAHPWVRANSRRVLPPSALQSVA
# T1 sequence (Q9NQS7 826-918 partner): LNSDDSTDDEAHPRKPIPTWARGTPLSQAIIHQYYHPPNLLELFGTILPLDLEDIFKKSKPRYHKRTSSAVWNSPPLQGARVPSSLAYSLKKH
Compound,IC50 [1] [nM],IC50 [2] [nM],IC50 [3] [nM]
"CCOc1cc(OC[C@H]2CCCN2C)c2c(Nc3cnn(CC(=O)Nc4cccc(F)c4F)c3)ncnc2c1 [Compound 1, N-(2,3-difluorophenyl)-2-{4-[(7-ethoxy-5-{[(2R)-1-methylpyrrolidin-2-yl]methoxy}quinazolin-4-yl)amino]-1H-pyrazol-1-yl}acetamide]",0.5,17,5.5
"CCOc1cc(OC[C@H]2CCCN2)c2c(Nc3cnn(CC(=O)Nc4cccc(F)c4F)c3)ncnc2c1 [Compound 2, N-(2,3-difluorophenyl)-2-[4-({7-ethoxy-5-[(2R)-pyrrolidin-2-ylmethoxy]quinazolin-4-yl}amino)-1H-pyrazol-1-yl]acetamide]",0.5,20,2
"CCOc1cc(OC[C@H]2COCCN2)c2c(Nc3cnn(CC(=O)Nc4cccc(F)c4F)c3)ncnc2c1 [Compound 3, N-(2,3-difluorophenyl)-2-[4-({7-ethoxy-5-[(3R)-morpholin-3-ylmethoxy]quinazolin-4-yl}amino)-1H-pyrazol-1-yl]acetamide]",0.1,4,2
